How the values were obtained:
Assay type in all cases: cell-based
E. coli = assay: Microcolony growth imaging of E. coli on Kirby-Bauer type growth medium; conditions: 2 μg/ml, two-hour incubation, E. coli microcolonies, FIG. 2D
Method: (§1) FIGS. 2A-2D, 3A-3D, and 4A-4D show digital images of various microorganisms exposed to different growth-altering agents. Here again, the images contained in panels “A” and “B” of each FIGURE were taken immediately after inoculation, and the images contained in panels “C” and “D” of each FIGURE were taken after about two hours of incubation. None of the images in FIGS. 2A-2D, 3A-3D, and 4A-4D are enhanced by digital processing. The images contained in panels “B” and “D” of each FIGURES show regions of the growth medium that have been exposed to a growth-altering agent. The images contained in panels “A” and “C” of each FIGURE have not been exposed to a growth-altering agent and can be used as control reference areas.
The images contained in FIGS. 2A and 2B show regions of a Kirby-Bauer type growth medium immediately after inoculation with E. coli. The images contained in FIGS. 2C and 2D show the same regions after a two-hour incubation period. […] If it is desired to find the threshold of microbial sensitivity, such as is done to determine the minimum inhibitory concentration (MIC), then a series of separate regions each containing a certain concentration of the growth-altering agent may be used and the relative growth in each separate region evaluated. […]

E. faecalis = assay: Microcolony growth imaging of E. faecalis on Kirby-Bauer type growth medium; conditions: 2 μg/ml, two-hour incubation, E. faecalis microcolonies, FIG. 3D
Method: as §1
The images contained in FIGS. 3A and 3B show regions of a Kirby-Bauer type growth medium immediately after inoculation with E. faecalis. The images contained in FIGS. 3C and 3D show the same regions after a two-hour incubation period.

E. faecium = assay: Microcolony growth imaging of E. faecium on Kirby-Bauer type growth medium; conditions: 2 μg/ml, two-hour incubation, E. faecium microcolonies, FIG. 4D
Method: as §1
The images contained in FIGS. 4A and 4B show regions of a Kirby-Bauer type growth medium immediately after inoculation with E. faecium. The images contained in FIGS. 4C and 4D show the same regions after a two-hour incubation period.

| SMILES | microcolony perimeter/area ratio characteristic (E. coli) | microcolony growth (E. faecalis) | microcolony growth (E. faecium) |
| --- | --- | --- | --- |
| CO/N=C(\C(=O)N[C@@H]1C(=O)N2C(C(=O)O)=C(COC(C)=O)CS[C@H]12)c1csc(N)n1 [cefotaxime] | increased perimeter/area ratio characteristic |  |  |
| CN[C@H](CC(C)C)C(=O)N[C@H]1C(=O)N[C@@H](CC(N)=O)C(=O)N[C@H]2C(=O)N[C@H]3C(=O)N[C@H](C(=O)N[C@H](C(=O)O)c4cc(O)cc(O)c4-c4cc3ccc4O)[C@H](O)c3ccc(c(Cl)c3)Oc3cc2cc(c3O[C@@H]2O[C@H](CO)[C@@H](O)[C@H](O)[C@H]2O[C@H]2C[C@](C)(N)[C@H](O)[C@H](C)O2)Oc2ccc(cc2Cl)[C@H]1O [vancomycin] |  | do not appear to exhibit any growth | show detectable growth |
